The text below walks through data of US10131664B2 (Celgene Quanticel Research, Inc., priority 2013, dated 2018).

In general, IC50 refers to the concentration that gives 50% inhibition.

The subject of assay [1] is THP-1 (AML) cells. As to the kind of experiment: LSD1 CD11b cellular assay (flow cytometry). The class given is cell-based. The following applies: Homo sapiens, 96 h; CD11b expression in THP-1 (AML) cells, flow cytometry, 4 days incubation; read-out: Cellular IC50. In a few lines:
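THP-1 AML cells treated with serially diluted compound (0.2% DMSO final) for 4 days at 37 °C, 5% CO2. CD11b expression measured by flow cytometry with DAPI staining; IC50 derived from percent CD11b-positive cells versus inhibitor concentration.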
A general note: In flow cytometry, cells or beads pass a laser one at a time.

Assay [2] deals with full-length human LSD1 (Homo sapiens (Human), UniProt O60341). Kind of assay: In vitro enzyme inhibition assay LSD-1 (TR-FRET). The class given is biochemical. As to conditions: TR-FRET, 0.1 nM LSD1, 50 nM H3K4me1-biotin peptide, 2 μM FAD, pH7.3; read-out: LSD1 IC50. The procedure: This assay determines the ability of a test compound to inhibit LSD1 demethylase activity.
The enzymatic assay of LSD1 activity is based on Time Resolved-Fluorescence Resonance Energy Transfer (TR-FRET) detection.
The ability of the compounds disclosed herein to inhibit LSD1 activity was quantified and the respective IC50 value was determined. Table 5 provides the IC50 values of various substituted heterocyclic compounds disclosed herein.
In general terms: TR-FRET usually uses a lanthanide donor and a delayed reading to cut background.

Bounds are passed on as bounds.

For `Cc1ccc(-c2cc(NCC3CCNCC3)nn2-c2ccc(C#N)cc2)cc1` [Example 46, 4-[5-(4-methylphenyl)-3-(piperidin-4-ylmethylamino)pyrazol-1-yl]benzonitrile], the concentration for half-maximal inhibition (IC50) was 100 to 1000 nM in assay [1] and less than 100 nM in assay [2].
With `CCNc1nc(N2CCC(N)CC2)nc(-c2ccc(C#N)c(F)c2)c1-c1ccc2nn(C)cc2c1` [Example 166, 4-[2-(4-aminopiperidin-1-yl)-6-(ethylamino)-5-(2-methyl-2H-indazol-5-yl)-pyrimidin-4-yl]-2-fluorobenzonitrile], the 50% inhibitory concentration (IC50) in assay [1] and in assay [2] was less than 100 nM throughout.
Take `Cn1ccc(C#Cc2cnc(N3CCC(N)CC3)nc2-c2ccc(C#N)c(F)c2)n1` [Example 99, 4-[2-(4-aminopiperidin-1-yl)-5-[2-(1-methylpyrazol-3-yl)ethynyl]pyrimidin-4-yl]-2-fluorobenzonitrile]: the half-inhibitory concentration (IC50) in assay [1] and in assay [2] was less than 100 nM throughout.
Turning to `Cn1cnc2cc(-c3cnc(N4CCC(N)CC4)nc3-c3ccc(C#N)c(F)c3)c(F)c(F)c21` [Example 132, 4-[2-(4-aminopiperidin-1-yl)-5-(6,7-difluoro-1-methylbenzimidazol-5-yl)pyrimidin-4-yl]-2-fluorobenzonitrile], the IC50 in assay [1] and in assay [2] was less than 100 nM throughout.
For the compound `N#Cc1ccc(-c2nc(N3CCC4(CCNC4)CC3)ncc2-c2cnn(CC(F)(F)F)c2)cc1` [Example 62, 4-[2-(2,8-diazaspiro[4.5]decan-8-yl)-5-[1-(2,2,2-trifluoroethyl)pyrazol-4-yl]pyrimidin-4-yl]benzonitrile], the IC50 in assay [1] and in assay [2] was less than 100 nM in each case.
In the case of `Cn1cnc2cc(-c3cnc(N4CCC5(CCNC5)CC4)nc3-c3ccc(C#N)c(F)c3)cnc21` [Example 137, 4-[2-(2,8-diazaspiro[4.5]decan-8-yl)-5-(3-methylimidazo[4,5-b]pyridin-6-yl)pyrimidin-4-yl]-2-fluorobenzonitrile], the IC50 in assay [1] and in assay [2] was less than 100 nM throughout.
Regarding `Cc1ccc(-c2cnc(N3CCC4CNCC4CC3)nc2-c2ccc(C#N)cc2)cn1` (centres unmarked) [Example 114, 4-[2-(2,3,3a,4,5,7,8,8a-octahydro-1H-pyrrolo[3,4-d]azepin-6-yl)-5-(6-methylpyridin-3-yl)pyrimidin-4-yl]benzonitrile], the IC50 was 100 to 1000 nM in assay [1] and less than 100 nM in assay [2].
